Assay results as given in ChEMBL document CHEMBL4311970 (Eur J Med Chem, 2019).
The source made the active and inactive calls. The rule behind the calls is not given here.

Assays:
[1] = Cytotoxicity against human NHBE cells assessed as reduction in cell viability incubated for 72 hrs by SRB assay; assay type: cell-based
MDA-MB-231 = test: Antiproliferative activity against human MDA-MB-231 cells assessed as reduction in cell viability incubated for 72 hrs by SRB assay; assay type: functional, cell-based; conditions: MDA-MB-231, 72 h
A549 = test: Antiproliferative activity against human A549 cells assessed as reduction in cell viability incubated for 72 hrs by SRB assay; assay type: functional, cell-based; conditions: A549, 72 h
[2] = target: T1, M-phase inducer phosphatase 1 (Homo sapiens, UniProt P30304); test: Inhibition of recombinant human Cdc25A using OMFP as substrate preincubated for 5 to 8 mins and measured every 5 mins 60 mins by fluorescence based assay
T1 sequence (P30304 whole entry): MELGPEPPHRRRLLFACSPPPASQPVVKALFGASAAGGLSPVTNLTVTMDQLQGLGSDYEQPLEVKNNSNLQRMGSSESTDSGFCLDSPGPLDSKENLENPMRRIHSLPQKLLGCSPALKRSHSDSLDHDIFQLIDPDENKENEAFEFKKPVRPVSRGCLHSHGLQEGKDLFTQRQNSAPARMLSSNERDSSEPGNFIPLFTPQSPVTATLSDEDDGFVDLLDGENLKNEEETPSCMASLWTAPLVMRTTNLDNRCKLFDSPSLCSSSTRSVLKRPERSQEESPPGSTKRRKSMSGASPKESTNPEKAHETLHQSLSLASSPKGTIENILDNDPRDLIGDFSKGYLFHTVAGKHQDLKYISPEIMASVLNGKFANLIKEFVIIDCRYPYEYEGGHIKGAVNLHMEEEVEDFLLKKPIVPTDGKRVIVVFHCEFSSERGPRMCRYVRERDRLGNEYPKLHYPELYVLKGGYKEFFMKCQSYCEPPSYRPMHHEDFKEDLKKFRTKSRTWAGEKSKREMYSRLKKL

[3] = target: T2, M-phase inducer phosphatase 1 (Homo sapiens) (UniProt P30304); test: Inhibition of recombinant human Cdc25A at 10 uM using OMFP as substrate preincubated for 5 to 8 mins and measured every 5 mins 60 mins by fluorescence based assay relative to control
T2 sequence (whole entry): T1 sequence (P30304 whole entry)

[4] = target: T3, M-phase inducer phosphatase 2 (Homo sapiens) (UniProt P30305); test: Inhibition of recombinant human Cdc25B at 10 uM using OMFP as substrate preincubated for 5 to 8 mins and measured every 5 mins 60 mins by fluorescence based assay
T3 sequence (whole entry): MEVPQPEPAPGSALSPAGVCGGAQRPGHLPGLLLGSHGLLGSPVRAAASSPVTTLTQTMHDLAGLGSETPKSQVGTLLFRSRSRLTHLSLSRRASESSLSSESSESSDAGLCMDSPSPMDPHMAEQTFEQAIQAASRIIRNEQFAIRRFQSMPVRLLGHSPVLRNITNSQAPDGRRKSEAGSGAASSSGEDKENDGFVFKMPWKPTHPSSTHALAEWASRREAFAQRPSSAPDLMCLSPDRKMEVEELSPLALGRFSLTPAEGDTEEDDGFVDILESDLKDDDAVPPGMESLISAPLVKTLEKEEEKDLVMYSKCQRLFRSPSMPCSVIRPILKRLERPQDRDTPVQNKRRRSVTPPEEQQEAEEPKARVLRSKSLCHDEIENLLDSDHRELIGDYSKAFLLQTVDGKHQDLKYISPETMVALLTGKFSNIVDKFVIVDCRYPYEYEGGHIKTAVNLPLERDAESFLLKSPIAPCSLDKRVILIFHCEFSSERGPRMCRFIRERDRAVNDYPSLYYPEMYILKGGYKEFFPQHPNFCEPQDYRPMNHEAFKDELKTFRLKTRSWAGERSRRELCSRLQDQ

[5] = Antiproliferative activity against human KBVIN cells assessed as reduction in cell viability incubated for 72 hrs by SRB assay; assay type: functional, cell-based
[6] = target: T4, M-phase inducer phosphatase 3 (Homo sapiens) (UniProt P30307); test: Inhibition of recombinant human Cdc25C at 10 uM using OMFP as substrate preincubated for 5 to 8 mins and measured every 5 mins 60 mins by fluorescence based assay
T4 sequence (whole entry): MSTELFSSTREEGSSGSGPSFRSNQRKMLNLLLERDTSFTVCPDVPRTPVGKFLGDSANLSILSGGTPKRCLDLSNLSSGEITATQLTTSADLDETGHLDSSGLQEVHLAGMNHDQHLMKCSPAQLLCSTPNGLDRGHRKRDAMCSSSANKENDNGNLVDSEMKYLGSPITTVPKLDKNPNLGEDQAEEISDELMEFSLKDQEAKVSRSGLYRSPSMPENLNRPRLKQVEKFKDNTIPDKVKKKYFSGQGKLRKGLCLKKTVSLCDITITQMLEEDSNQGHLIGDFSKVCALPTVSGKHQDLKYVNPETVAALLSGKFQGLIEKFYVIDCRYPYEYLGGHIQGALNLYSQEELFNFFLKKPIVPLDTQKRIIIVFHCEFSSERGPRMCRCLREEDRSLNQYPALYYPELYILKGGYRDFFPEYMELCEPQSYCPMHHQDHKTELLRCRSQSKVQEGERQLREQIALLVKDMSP

KB = test: Antiproliferative activity against human KB cells assessed as reduction in cell viability incubated for 72 hrs by SRB assay; assay type: functional, cell-based
[7] = target: T5, M-phase inducer phosphatase 3 (Homo sapiens, UniProt P30307); test: Inhibition of recombinant human Cdc25C using OMFP as substrate preincubated for 5 to 8 mins and measured every 5 mins 60 mins by fluorescence based assay
T5 sequence (P30307 whole entry): T4 sequence (whole entry)

[8] = target: T6, M-phase inducer phosphatase 2 (Homo sapiens, UniProt P30305); test: Inhibition of recombinant human Cdc25B using OMFP as substrate preincubated for 5 to 8 mins and measured every 5 mins 60 mins by fluorescence based assay
T6 sequence (P30305 whole entry): T3 sequence (whole entry)

MCF7 = test: Antiproliferative activity against human MCF7 cells assessed as reduction in cell viability incubated for 72 hrs by SRB assay; assay type: functional, cell-based; conditions: MCF7, 72 h
Homo sapiens [9] = species on record: Homo sapiens; test: Selectivity index, ratio of IC50 for recombinant human Cdc25A to IC50 for recombinant human Cdc25C
[10] = target: T4, M-phase inducer phosphatase 3 (Homo sapiens); test: Potency index, ratio of IC50 of NSC663284 to IC50 of compound for inhibition of recombinant human Cdc25C using OMFP as substrate preincubated for 5 to 8 mins and measured every 5 mins 60 mins by fluorescence based assay
Homo sapiens [11] = species on record: Homo sapiens; test: Selectivity index, ratio of IC50 for recombinant human Cdc25B to IC50 for recombinant human Cdc25C

IC50 (MDA-MB-231) | IC50 (A549) | IC50 [2] | inhibition [3] | inhibition [4] | inhibition [6] | IC50 (KB) | IC50 [7] | IC50 [8] | IC50 (MCF7) | Ratio IC50 (Homo sapiens [9]) | Ratio IC50 [10] | Ratio IC50 (Homo sapiens [11]) | Compound | IC50 [1] | IC50 [5]
4.9 µM | 4.92 µM | 0.54 µM | 69.1% | Active | Active | 5.01 µM | 0.21 µM | 1 µM | 4.84 µM | – | – | – | N#Cc1cccc(Cn2cc(CNC3=C(Cl)C(=O)c4cccnc4C3=O)nn2)c1 | 6.43 µM | 11.6 µM
4.97 µM | 2.76 µM | – | 48.4% | Active | Active | 4.89 µM | – | – | 1 µM | – | – | – | O=C1C(Cl)=C(NCCN2CCOCC2)C(=O)c2ncccc21 | 3.31 µM | 4.87 µM
4.63 µM | 3.92 µM | 0.53 µM | 74.4% | Active | Active | 5.05 µM | 0.09 µM | 1.39 µM | 4.71 µM | 6 | 9 | 15 | Cc1ccc(Cn2cc(CNC3=C(Cl)C(=O)c4cccnc4C3=O)nn2)cc1 | 6 µM | 6.81 µM
– | 0.00752 µM | – | – | – | – | – | – | – | – | – | – | – | CC(=O)O[C@H]1C(=O)[C@@]2(C)[C@H]([C@H](OC(=O)c3ccccc3)[C@]3(O)C[C@H](OC(=O)[C@H](O)[C@@H](NC(=O)c4ccccc4)c4ccccc4)C(C)=C1C3(C)C)[C@]1(OC(C)=O)CO[C@@H]1C[C@@H]2O [PACLITAXEL] | 36.5 µM | 3.15 µM
4.86 µM | 4.5 µM | 1.2 µM | 57.2% | Active | Active | 5.13 µM | 0.42 µM | 2.79 µM | 4.7 µM | – | – | – | N#Cc1ccccc1Cn1cc(CNC2=C(Cl)C(=O)c3cccnc3C2=O)nn1 | 2.18 µM | 9.02 µM
